From patent US10041937B2, “Macrophage identification agent, and identification method, sorting method, evaluation method, screening method and kit using the macrophage identifier agent” (CANON KABUSHIKI KAISHA, priority 2013, dated 2018)

Tests used:
[1] = system: M1 macrophages and M2 macrophages; test: Analysis of export inhibition of the identification agent by a test substance (FTC, MK-571, DIDS); assay type: cell-based, mouse
Procedure: Besides, Fumitremorgin C (manufactured by Sigma-Aldrich, hereinafter referred to as FTC) was added thereto, as a substance for inhibiting export of the compound (1) having been imported into cells, to a concentration of 10 μM, and the resultant was incubated at 37° C. for 30 minutes. Thereafter, the tube was centrifuged at 180 G for 10 minutes to remove the supernatant, and then, 1 mL of a HBSS buffer containing the FTC in a concentration of 10 μM was added thereto to suspend the cells, and the resultant was further incubated at 37° C. for 30 minutes.
Furthermore, each tube was centrifuged at 180 G for 10 minutes to remove the supernatant, the cells were suspended by adding the dye aqua for identifying dead cells thereto, and the resultant was incubated at 4° C. for 10 minutes. Thereafter, the tube was centrifuged at 180 G for 10 minutes to remove the supernatant, and then, the cells were suspended in a FACS buffer and analyzed by using a FACSCanto (trademark) II flow cytometry apparatus manufactured by BD.
The analysis was performed on a cell population showing a low signal for the aqua, so as to analyze a cell population from which dead cells were eliminated.
The analysis was performed in the same manner as in Example 57 except that the FTC was not added.
Thereafter, the tube was centrifuged at 180 G for 10 minutes to remove the supernatant, and then, 1 mL of a HBSS buffer containing the MK-571 in a concentration of 10 μM was added thereto to suspend the cells, and the resultant was further incubated at 37° C. for 30 minutes.
The analysis was performed in the same manner as in Example 79 except that the MK-571 was not added. […] The degree of the enhancement of the peak intensity caused by adding the MK-571 was evaluated by calculating the resolution R described above by using peak intensities in histograms prepared with and without adding the MK-571.
Thereafter, the tube was centrifuged at 180 G for 10 minutes to remove the supernatant, and then, 1 mL of a HBSS buffer containing the DIDS in a concentration of 10 μM was added thereto to suspend the cells, and the resultant was further incubated at 37° C. for 30 minutes.

[2] = system: M1 macrophages and M2 macrophages differentiated from RAW264.7 cells; test: Identification of macrophage subtypes differentiated from mouse cell line RAW264.7; assay type: cell-based; details: RAW264.7 derived M1 and M2
Procedure: The subtypes were identified by using the compound (1) in the same manner as in Example 1 except that the macrophage subtypes differentiated from the mouse bone marrow cells were changed to macrophage subtypes differentiated from a cell line established from mouse monocytic leukemia.
The culture of subtypes was performed with reference to NPL 9. Specifically, RAW264.7 cells purchased from American Type Culture Collection, that is, a cell line established from mouse monocytic leukemia, were subcultured several times, and the resultant cells were dispersed to a concentration of 3.3×10^4/mL in a D-MEM containing 10% FBS, 1% P/S and 1% MEM-NEAA, and 3.3×10^5 cells were seeded in a 100 mm dish. The cells were grown by incubation performed in the presence of 5% CO2 at 37° C. After 2 to 4 days, it was confirmed that an area of about to 70% of the bottom of the dish had been covered by the cells, the medium was then exchanged, and by adding 200 ng of interferon-γ and 1 μg of polyliposaccharide (both manufactured by Pepro Tech) to the medium, the cells were differentiated to the subtype M1. Besides, by adding 100 ng of IL-4, the cells were differentiated to the subtype M2. […]
A histogram was prepared by plotting fluorescence intensity obtained in the FITC channel on the abscissa and plotting the number of cells at each fluorescence intensity on the ordinate, which is shown in FIG. 9.

[3] = system: M1 macrophages and M2 macrophages differentiated from mouse bone marrow cells; test: Subtype identification by staining and flow cytometry of M1 and M2 macrophages differentiated from mouse bone marrow cells; assay type: cell-based, Balb/c mouse; details: for Resolution ratio R: M1 vs M2 macrophages from mouse bone marrow cells; for Evaluation of macrophage subtype identification: class based on resolution R; for Peak position of M1 macrophage: mouse bone marrow-derived M1 macrophages; for Peak position of M1 macrophage / Peak position of M2 macrophage: channel listed per compound; for Peak position of M2 macrophage: mouse bone marrow-derived M2 macrophages
Procedure, shortened: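 Balb/c mouse bone marrow cells were differentiated to macrophages with 50 ng/mL M-CSF over two 3–4-day periods, then polarized for 3 days to M1 (interferon-γ plus polyliposaccharide) or M2 (IL-4). Live cells (aqua dye-negative) were analysed by flow cytometry; resolution R = |FM1−FM2|/(WM1+WM2) from histogram peak positions and widths indexed subtype discrimination.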

[4] = system: M1 macrophages and M2 macrophages differentiated from THP-1 cells; test: Identification of macrophage subtypes differentiated from human cell line THP-1; assay type: cell-based; details: THP-1 derived M1 and M2
Procedure: The fluorescent signals derived from the compounds (3), (4), (6), (7), (9), (11) to (13), (15), (17), (19) to (26), (28), (30) to (33), (35), (36), (38), (42) to (45), (48) to (62), (65), (67), (74) to (76), (82), (83) and (85) and the comparative compounds (1) and (2) were measured in channels suitable to the respective compounds. Histograms were prepared by plotting fluorescence intensities obtained in the respective channels on the abscissa and plotting the numbers of cells at each fluorescence intensity on the ordinate. A difference between a fluorescence intensity (FM1) at a peak top of the histogram of the M1 macrophage and a fluorescence intensity (FM2) at a peak top of the histogram of the M2 macrophage is divided by a sum of a peak width (WM1) of the histogram of the M1 macrophage and a peak width (WM2) of the histogram of the M2 macrophage, so as to obtain a resolution R, which was used as an index of the identification ability for a subtype (see the following expression (1)). Resolution R=|FM1−FM2|/(WM1+WM2) Expression (1)
Based on the thus obtained values of the resolution R, the identification abilities for the subtypes of the compounds (3), (4), (6), (7), (9), (11) to (13), (15), (17), (19) to (26), (28), (30) to (33), (35), (36), (38), (42) to (45), (48) to (62), (65), (67), (74) to (76), (82), (83) and (85) and the comparative compounds (1) and (2) were evaluated as any of A to C according to the following criteria, and if the resolution R was 0.15 or more, the compound was determined to be good in the subtype identification.
The subtypes were identified by using the compound (1) in the same manner as in Example 1 except that the macrophage subtypes differentiated from the mouse bone marrow cells were changed to macrophage subtypes differentiated from a cell line established from human acute monocytic leukemia.
The culture of subtypes was performed with reference to NPL 10. Specifically, THP-1 cells purchased from JCRB Cell Bank of National Institute of Biomedical Innovation, that is, a cell line established from human acute monocytic leukemia, were subcultured several times, and the resultant cells were dispersed to a concentration of 5.0×10^5/mL in an RPMI1640 containing 10% FBS and 1% P/S, and 5.0×10^6 cells were seeded in a 100 mm dish. The monocytes were differentiated into macrophages by incubating the resultant in the presence of 5% CO2 at 37° C. for 2 days with 500 ng of PMA added thereto. After exchanging the medium, by adding 200 ng of interferon-γ and 1 μg of polyliposaccharide (both manufactured by Pepro Tech) to the medium, the cells were differentiated to the subtype M1. Besides, by adding 200 ng of IL-4 and IL-13, the cells were differentiated to the subtype M2. After incubation performed in the presence of 5% CO2 at 37° C. for 24 hours, the resultant was rinsed with PBS, and PBS containing 0.25% trypsin and 1 mM EDTA (ethylenediaminetetraacetic acid) was used for collecting, from the dish, the macrophages having been differentiated to the subtypes M1 and M2.
Specifically, fluorescent signals derived from the compounds (1) (3) (4) (12) and (15) were measured by using the channels which are appropriate for each of the compounds and the identification abilities for the subtypes of the compounds were evaluated based on the values of the resolution R.

[5] = system: mixture of the M1 macrophages and the M2 macrophages; test: Sorting of subtypes from a mixture of M1 and M2 macrophages with an FACS apparatus; assay type: cell-based, mouse; details: compound 1 μM
[6] = general formula (10) dyes (Table 8)
[7] = general formula (11) dyes (Table 9)

O=S(=O)(O)c1cc(N=C=S)ccc1C=Cc1ccc(N=C=S)cc1S(=O)(=O)O [DIDS, 4,4′-diisothiocyanatostilbene-2,2′-disulfonic acid]
enhancement of the fluorescence intensity caused by inhibition of export of the compound (139) ([1]; DIDS 10 μM, compound (139) 1 μM): observed merely in the M1 macrophages

COc1ccc2c3c([nH]c2c1)[C@H](C=C(C)C)N1C(=O)[C@@H]2CCCN2C(=O)[C@@H]1C3 [FTC, Fumitremorgin C]
enhancement of the fluorescence intensity caused by inhibition of export of the compound (1) ([1]; FTC 10 μM, compound (1) 1 μM): observed merely in the M2 macrophages

CN(C)C(=O)CCSC(SCCC(=O)O)c1cccc(/C=C/c2ccc3ccc(Cl)cc3n2)c1 (stereo not shown) [MK-571]
degree of the enhancement of the peak intensity (resolution R with and without MK-571) ([1]; M1 macrophages, MK-571 10 μM, compound (113) 1 μM): 0.406
degree of the enhancement of the peak intensity (resolution R with and without MK-571) ([1]; M1 macrophages, MK-571 10 μM, compound (120) 1 μM): 0.739
degree of the enhancement of the peak intensity (resolution R with and without MK-571) ([1]; M2 macrophages, MK-571 10 μM, compound (113) 1 μM): 0.438
degree of the enhancement of the peak intensity (resolution R with and without MK-571) ([1]; M2 macrophages, MK-571 10 μM, compound (120) 1 μM): 0.730
enhancement of the fluorescence intensity caused by inhibition of export of the compound (113) ([1]; MK-571 10 μM, compound (113) 1 μM): observed in both the M1 macrophages and the M2 macrophages
enhancement of the fluorescence intensity caused by inhibition of export of the compound (120) ([1]; MK-571 10 μM, compound (120) 1 μM): observed in both the M1 macrophages and the M2 macrophages

CCN(CC)c1ccc2cc(-c3nc4ccccc4s3)c(=O)oc2c1 [compound (129)]
subtype more strongly stained [2]: the M1 macrophages were stained more strongly by the compound (129) than the M2 macrophages
Resolution ratio R [3, 6]: 0.709
Evaluation of macrophage subtype identification [3, 6]: A (The compound is very good in the subtype identification (namely, the resolution R is 0.5 or more))
Peak position of M1 macrophage [3, 6]: 31.0
Peak position of M2 macrophage [3, 6]: 13.0
subtype more strongly stained [4]: the M1 macrophages were stained more strongly by the compound (129) than the M2 macrophages

CCC1=C(C)C2=C(C)c3c(C)c(CC)c(C)n3[B-](F)(F)[N+]2=C1C [compound (139)]
sorting of identified M1 and M2 macrophages ([5]; FACS apparatus): could be each sorted with an FACS apparatus
subtype more strongly stained ([5]; mixed M1 and M2 macrophages): staining the M1 macrophages more strongly than the M2 macrophages
Resolution ratio R [3, 7]: 1.023
Evaluation of macrophage subtype identification [3, 7]: A (The compound is very good in the subtype identification (namely, the resolution R is 0.5 or more))
Peak position of M1 macrophage [3, 7]: 220
Peak position of M2 macrophage [3, 7]: 47.8
subtype more strongly stained ([3]; two compounds used in combination, each 1 μM): the M1 macrophages show higher fluorescence intensity in the FITC channel than the M2 macrophages
subtype more strongly stained [4]: the M1 macrophages were stained more strongly by the compound (139) than the M2 macrophages
